Test system: moderate-to-severe chronic spontaneous urticaria (CSU)
Experiment: Phase 2 CSU study: hives severity score over 7 days (HSS7)
Assay type: in vivo, human
Parameters: key to HSS7 Change from baseline, Median / HSS7, Median / HSS7, Max / HSS7 Change from baseline, Q1 / HSS7 Change from baseline, Q3 / HSS7 Change from baseline, Max: 7-day sum of daily hive scores, each 0 = none to 3 = >50 hives
From the text: The study comprises a 12 week, randomized, double-blind, placebo-controlled, multi-center, dose-ranging efficacy and safety phase, followed by a 40 week open label extension (OLE) phase (see FIG. 1).
The study consists of three phases and an optional OLE phase.
The UAS is a validated PRO measure. The daily UAS is the sum of the daily Hive Severity Score (HSS, ranging from 0=None to 3=more than 50 hives) and the daily Itch Severity Score (ISS, ranging from 0=None to 3=intense), the 2 key urticaria signs and symptoms which are wheals and itch. The daily UAS scores range from 0 to 6 point/day. Daily UAS scores are summed over 7-day period to create the UAS7, ranging from 0 to 42, and are composed of the HSS7 and ISS7 components. […] Patients were to complete the UAS using the e-diary. The e-diary was to be used once daily on the same time of each day recording of participant's answers to the urticaria activity score over 7 days (UAS7) questionnaire. For participants who entered the OLE phase, their answers to the UAS7 questionnaire were also to be collected from Week 20 to Week24 and from Week 48 to Week 52.
The following secondary endpoints were to be analyzed using the same approach as for the primary endpoint: • Change from baseline in UAS7 at Week 4 • Change from baseline in UAS7 at Week 12 (for US and US reference countries) • Change from baseline in ISS7 at Week 12 (except US and US reference countries) • Change from baseline in HSS7 at Week 12

[1] = 400 mg QPM, Week 10, ITT Population
[2] = 400 mg QPM, Week 11, ITT Population
[3] = 400 mg QPM, Week 12, ITT population
[4] = 400 mg QPM, Week 12, Omalizumab-Naïve Population
[5] = 400 mg TID, Omalizumab-Naïve Population, last block under Week 12, double-blind period, WOCF imputation
[6] = 400 mg TID, Week 1, ITT Population
[7] = 400 mg TID, Week 1, Omalizumab-Naïve Population
[8] = 400 mg TID, Week 2, ITT Population
[9] = 400 mg TID, Week 2, Omalizumab-Naïve Population
[10] = 400 mg TID, Week 3, ITT Population
[11] = 400 mg TID, Week 3, Omalizumab-Naïve Population
[12] = 400 mg TID, Week 4, ITT population
[13] = 400 mg TID, Week 4, Omalizumab-Naïve Population
[14] = 400 mg TID, Week 5, ITT Population
[15] = 400 mg TID, Week 5, Omalizumab-Naïve Population
[16] = 400 mg TID, Week 6, ITT Population
[17] = 400 mg TID, Week 6, Omalizumab-Naïve Population
[18] = 400 mg TID, Week 7, ITT Population
[19] = 400 mg TID, Week 7, Omalizumab-Naïve Population
[20] = 400 mg TID, Week 8, ITT population
[21] = 400 mg TID, Week 8, Omalizumab-Naïve Population

CC(C)(C=C(C#N)C(=O)N1CCC[C@@H](n2nc(-c3ccc(Oc4ccccc4)cc3F)c3c(N)ncnc32)C1)N1CCN(C2COC2)CC1 [rilzabrutinib, (R)-2-[3-[4-amino-3-(2-fluoro-4-phenoxy-phenyl)pyrazolo[3,4-d]pyrimidin-1-yl]piperidine-1-carbonyl]-4-methyl-4-[4-(oxetan-3-yl)piperazin-1-yl]pent-2-enenitrile]
HSS7 % Change difference for rilzabrutinib vs.placebo LS Mean (95% CI) [1]: −6.70 %
HSS7 % Change from baseline LS Mean (SE) [1]: −34.70 (6.79) %
HSS7 Change difference for rilzabrutinib vs.placebo LS Mean (95% CI) [1]: −0.56 (−3.19, 2.07)
HSS7 Change from baseline LS Mean (SE) [1]: −5.16 (0.98)
HSS7 Postbaseline Mean (SD) [1]: 9.82 (5.85)
HSS7 Postbaseline Mean (SD) (400 mg QPM, Week 10, Omalizumab-Naïve Population): 9.88 (5.93)
HSS7 Postbaseline Mean (SD) (400 mg QPM, Week 10, Omalizumab-Naïve Population with Outlier Removed from Analysis): 9.88 (5.93)
HSS7 % Change difference for rilzabrutinib vs.placebo LS Mean (95% CI) [2]: −8.01 %
HSS7 % Change from baseline LS Mean (SE) [2]: −34.56 (7.07) %
HSS7 Change difference for rilzabrutinib vs.placebo LS Mean (95% CI) [2]: −0.43 (−3.08, 2.22)
HSS7 Change from baseline LS Mean (SE) [2]: −4.97 (0.99)
HSS7 Postbaseline Mean (SD) [2]: 10.15 (6.09)
HSS7 Postbaseline Mean (SD) (400 mg QPM, Week 11, Omalizumab-Naïve Population): 10.18 (6.18)
HSS7 Postbaseline Mean (SD) (400 mg QPM, Week 11, Omalizumab-Naïve Population with Outlier Removed from Analysis): 10.18 (6.18)
HSS7 % Change difference for rilzabrutinib vs.placebo LS Mean (95% CI) [3]: −5.74 %
HSS7 % Change from baseline LS Mean (SE) [3]: −33.48 (7.28) %
HSS7 Change difference for rilzabrutinib vs.placebo LS Mean (95% CI) [3]: 0.14 (−2.62, 2.91)
HSS7 Change from baseline LS Mean (SE) [3]: −4.75 (1.03)
HSS7 Change difference for rilzabrutinib vs.placebo LS Mean (95% CI) [4]: −0.09 (−2.92, 2.75)
HSS7 Change from baseline LS Mean (SE) [4]: −4.49 (1.04)
median reduction in HSS7 at Week 12 (400 mg TID, ITT population): −8.31 points
HSS7, Max [5]: 16.0
HSS7, Min [5]: 2.0
HSS7 Change from baseline, Max [5]: 0.0
HSS7 Change from baseline, Mean (SD) [5]: −5.20 (3.11)
HSS7 Change from baseline, Median [5]: −6.00
HSS7 Change from baseline, Min [5]: −8.0
HSS7 Change from baseline, Q1 [5]: −7.00
HSS7 Change from baseline, Q3 [5]: −5.00
HSS7 Percent change from baseline, Max [5]: 0.0%
HSS7 Percent change from baseline, Mean (SD) [5]: −38.89 (26.61) percent
HSS7 Percent change from baseline, Median [5]: −44.44%
HSS7 Percent change from baseline, Min [5]: −71.4%
HSS7 Percent change from baseline, Q1 [5]: −50.00%
HSS7 Percent change from baseline, Q3 [5]: −28.57%
HSS7 % Change difference for rilzabrutinib vs.placebo LS Mean (95% CI) [6]: −30.65 %
HSS7 % Change from baseline LS Mean (SE) [6]: −39.34 (5.49) %
HSS7 Change from baseline LS Mean (SE) [6]: −6.09 (0.74)
HSS7 Postbaseline Mean (SD) [6]: 7.76 (4.83)
HSS7 % Change difference for rilzabrutinib vs.placebo LS Mean (95% CI) [7]: −27.41 %
HSS7 % Change from baseline LS Mean (SE) [7]: −34.85 (6.00) %
HSS7 Change from baseline LS Mean (SE) [7]: −5.32 (0.79)
HSS7 Postbaseline Mean (SD) [7]: 8.26 (4.91)
HSS7 Postbaseline Mean (SD) (400 mg TID, Week 1, Omalizumab-Naïve Population with Outlier Removed from Analysis): 8.50 (4.76)
HSS7 % Change difference for rilzabrutinib vs.placebo LS Mean (95% CI) [8]: −30.93 %
HSS7 % Change from baseline LS Mean (SE) [8]: −47.49 (5.64) %
HSS7 Change difference for rilzabrutinib vs.placebo LS Mean (95% CI) [8]: −4.24 (−6.33, −2.15)
HSS7 Change from baseline LS Mean (SE) [8]: −7.16 (0.77)
HSS7 Postbaseline Mean (SD) [8]: 6.61 (5.06)
HSS7 % Change difference for rilzabrutinib vs.placebo LS Mean (95% CI) [9]: −27.36 %
HSS7 % Change from baseline LS Mean (SE) [9]: −42.63 (6.08) %
HSS7 Postbaseline Mean (SD) [9]: 7.25 (5.05)
HSS7 Postbaseline Mean (SD) (400 mg TID, Week 2, Omalizumab-Naïve Population with Outlier Removed from Analysis): 7.44 (5.01)
HSS7 % Change difference for rilzabrutinib vs.placebo LS Mean (95% CI) [10]: −29.56 %
HSS7 % Change from baseline LS Mean (SE) [10]: −48.71 (5.82) %
HSS7 Change difference for rilzabrutinib vs.placebo LS Mean (95% CI) [10]: −3.79 (−5.97, −1.61)
HSS7 Change from baseline LS Mean (SE) [10]: −7.29 (0.81)
HSS7 Postbaseline Mean (SD) [10]: 6.49 (4.72)
HSS7 % Change difference for rilzabrutinib vs.placebo LS Mean (95% CI) [11]: −27.37 %
HSS7 % Change from baseline LS Mean (SE) [11]: −45.07 (6.36) %
HSS7 Postbaseline Mean (SD) [11]: 7.03 (4.82)
HSS7 Postbaseline Mean (SD) (400 mg TID, Week 3, Omalizumab-Naïve Population with Outlier Removed from Analysis): 7.03 (4.89)
HSS7 % Change difference for rilzabrutinib vs.placebo LS Mean (95% CI) [12]: −29.20 %
HSS7 % Change from baseline LS Mean (SE) [12]: −47.90 (5.95) %
HSS7 Change difference for rilzabrutinib vs.placebo LS Mean (95% CI) [12]: −3.53 (−5.74, −1.31)
HSS7 Change from baseline LS Mean (SE) [12]: −6.98 (0.82)
HSS7 Postbaseline Mean (SD) [12]: 6.39 (4.92)
HSS7 % Change difference for rilzabrutinib vs.placebo LS Mean (95% CI) [13]: −28.82 %
HSS7 % Change from baseline LS Mean (SE) [13]: −44.69 (6.50) %
HSS7 Postbaseline Mean (SD) [13]: 6.85 (4.96)
HSS7 Postbaseline Mean (SD) (400 mg TID, Week 4, Omalizumab-Naïve Population with Outlier Removed from Analysis): 6.85 (4.96)
HSS7 % Change difference for rilzabrutinib vs.placebo LS Mean (95% CI) [14]: −23.13 %
HSS7 % Change from baseline LS Mean (SE) [14]: −52.29 (5.80) %
HSS7 Change difference for rilzabrutinib vs.placebo LS Mean (95% CI) [14]: −3.09 (−5.36, −0.81)
HSS7 Change from baseline LS Mean (SE) [14]: −7.73 (0.84)
HSS7 Postbaseline Mean (SD) [14]: 6.02 (5.11)
HSS7 % Change difference for rilzabrutinib vs.placebo LS Mean (95% CI) [15]: −18.86 %
HSS7 % Change from baseline LS Mean (SE) [15]: −49.42 (6.23) %
HSS7 Postbaseline Mean (SD) [15]: 6.49 (5.14)
HSS7 Postbaseline Mean (SD) (400 mg TID, Week 5, Omalizumab-Naïve Population with Outlier Removed from Analysis): 6.49 (5.14)
HSS7 % Change difference for rilzabrutinib vs.placebo LS Mean (95% CI) [16]: −28.20 %
HSS7 % Change from baseline LS Mean (SE) [16]: −52.27 (6.61) %
HSS7 Change difference for rilzabrutinib vs.placebo LS Mean (95% CI) [16]: −3.48 (−5.94, −1.02)
HSS7 Change from baseline LS Mean (SE) [16]: −7.75 (0.91)
HSS7 Postbaseline Mean (SD) [16]: 6.14 (5.55)
HSS7 % Change difference for rilzabrutinib vs.placebo LS Mean (95% CI) [17]: −24.11 %
HSS7 % Change from baseline LS Mean (SE) [17]: −48.15 (7.17) %
HSS7 Postbaseline Mean (SD) [17]: 6.78 (5.55)
HSS7 Postbaseline Mean (SD) (400 mg TID, Week 6, Omalizumab-Naïve Population with Outlier Removed from Analysis): 6.78 (5.55)
HSS7 % Change difference for rilzabrutinib vs.placebo LS Mean (95% CI) [18]: −27.16 %
HSS7 % Change from baseline LS Mean (SE) [18]: −51.12 (6.01) %
HSS7 Change difference for rilzabrutinib vs.placebo LS Mean (95% CI) [18]: −3.58 (−5.87, −1.29)
HSS7 Change from baseline LS Mean (SE) [18]: −7.66 (0.86)
HSS7 Postbaseline Mean (SD) [18]: 6.18 (4.44)
HSS7 % Change difference for rilzabrutinib vs.placebo LS Mean (95% CI) [19]: −24.63 %
HSS7 Postbaseline Mean (SD) [19]: 6.40 (4.54)
HSS7 Postbaseline Mean (SD) (400 mg TID, Week 7, Omalizumab-Naïve Population with Outlier Removed from Analysis): 6.40 (4.54)
HSS7 % Change difference for rilzabrutinib vs.placebo LS Mean (95% CI) [20]: −25.27 %
HSS7 % Change from baseline LS Mean (SE) [20]: −54.34 (6.35) %
HSS7 Change difference for rilzabrutinib vs.placebo LS Mean (95% CI) [20]: −3.06 (−5.54, −0.58)
HSS7 Change from baseline LS Mean (SE) [20]: −7.81 (0.92)
HSS7 Postbaseline Mean (SD) [20]: 5.60 (4.81)
HSS7 % Change difference for rilzabrutinib vs.placebo LS Mean (95% CI) [21]: −22.36 %
HSS7 % Change from baseline LS Mean (SE) [21]: −50.37 (7.07) %

— patent US20260256792A1, “TREATMENT OF CHRONIC SPONTANEOUS URTICARIA BY ADMINISTERING (R)-2-[3-[4-AMINO-3-(2-FLUORO-4-PHENOXY-PHENYL)PYRAZOLO[3,4-D]PYRIMIDIN-1-YL]PIPERIDINE-1-CARBONYL]-4-METHYL-4-[4-(OXETAN-3-YL)PIPERAZIN-1-YL]PENT-2-ENENITRILE” (priority 2023, published 2026)
